Measured values as given in patent US20180110754A1, “CENICRIVIROC FOR THE TREATMENT OF FIBROSIS” (Tobira Therapeutics, Inc., priority 2015, published 2018).
Values joined by “and” are separate entries in the source; they are usually repeats but may differ in a detail not shown here. Equal values may be shown once.

Tests used:
[1] = tested on: STAM mouse model of Non-alcoholic Steatohepatitis; assay: STAM mouse model of NASH, week 9 (anti-NASH/fibrosis effects); assay type: in vivo; settings: for Sirius red-positive area (fibrosis area): perivascular space included; for Modified Sirius red-positive area: perivascular space subtracted
Protocol: NASH was induced in male mice by a single injection of 200 μg streptozotocin 2 days after birth (causing impaired glucose control), followed by a high fat diet from 4 weeks of age. […] Animals were sacrificed at 9 weeks of age, and biochemical, gene expression, and histologic evaluations of the liver were conducted.

[2] = Phase 1 studies in healthy volunteer subjects; assay type: in vivo, human; settings: single doses up to 800 mg, multiple daily doses up to 200 mg for 10 days
Description: The frequency and magnitude of transaminase elevations observed across these studies was consistent with the pattern described for Phase 1 studies in scientific literature. […] In both studies and at all doses CVC presented a favorable adverse event profile. […] No clinically relevant changes in ECG parameters or changes for any vital sign parameters were observed during the 48-week treatment period. No apparent dose or exposure relationship for adverse events, laboratory abnormalities (including CPK, ALT, AST and bilirubin elevations) or dose-limiting toxicities were observed.

HIV-1 BaL = assay: Extracellular virus (viral RNA, p24) in culture fluids of PM-1 cells exposed to HIV-1 BaL; assay type: cell-based; settings: 4 hrs post-infection, CVC 20 nM, MVC 50 nM
Description: Cells. PM-1 cells that express CD4, CCR5, and CXCR4 were maintained in RPMI-1640 medium containing 10% fetal bovine serum (R10 medium) at 37C, 5% CO2. 293T cells used for transfection were maintained in DMEM at 10% FBS, L-glutamine, and antibiotics (D10 medium) at 37C, 5% CO2. Virus Stocks. HIV-1 BaL virus was produced by transfecting 293T cells with the plasmid pWT/BaL. Lipofectamine 2000 was used as a transfection agent. Culture supernatants were collected at 48 hrs post-transfection, filtered through a 0.45 μm pore filter, and treated with 50 units of benzonase per ml of virus stock for 20 minutes at 37C to remove contaminating plasmid DNA. Virus stocks were frozen at −80C to halt benzonase activity. Benzonase-treated virus stocks were propagated in cord blood mononuclear cells (CBMCs). CBMCs were stimulated for 72 h with phytohemagluttinin (PHA-M) in R10 medium prior to infection with HIV-1 BaL. The viral amplification culture was subsequently grown in R10 supplemented with interleukin 2 (IL-2) and incubated at 37C, 5% CO2.
Both drugs were incubated with PM-1 cells for 1 hr at 37 C prior to the addition of virus. 500 ng of p24 antigen of HIV-1 BaL were incubated per 5×10^5 cells in 1 ml of R10 media. Virus only controls, described as “no cell” in the text, were used to measure viral decay. Viral adsorption was measured in the no-drug controls, whereby 500 ng of p24 Ag of HIV-1 Bal were added per 5×10^5 PM-1 cells that were pre-incubated at 37 C for 1 hr in the absence of drug treatment. Each drug treatment and control was performed in duplicate. Viral RNA was extracted from 140 μl of supernatant fluid using the QIAamp Viral RNA mini kit according to manufacturer's instructions. Samples were stored at −80 C until analysis. Supernatant viral loads were measured using quantitative real-time reverse transcription PCR (qRT-PCR) with the primers US1SSF (5′-[…]-3′), US1SSR (5′-[…]-3′) and US1SS probe (5′-(FAM) […]) and the Invitrogen qRT-PCR Supermix Kit. Cycling parameters were: 50° C. for 15 minutes, 95° C. for 10 minutes, followed by 50 cycles of 95° C. for 15 seconds, and 60° C. for 1 minute. All values are the result of replicate testing over 2 independent experiments. RNA copy number was quantified by use of 10-fold serial dilutions of pBaL/wt to generate standard curves for each assay and calibrated against samples with known copy numbers from previous studies.

mouse monocytes = assay: CCL2-induced chemotaxis ex vivo on mouse monocytes; assay type: cell-based
Protocol: Monocyte/macrophage recruitment was assessed in vivo in a mouse model of thioglycollate-induced peritonitis. CCL2-induced chemotaxis was evaluated ex vivo on mouse monocytes. […] Study assessments included body and liver/kidney weight, liver function test, liver/kidney morphology and collagen deposition, fibrogenic gene and protein expression, and pharmacokinetic analyses.

[3] = CVC-high 100 mg/kg/day, week 9, listed as Cenicriviroc
[4] = CVC-low 20 mg/kg/day, week 9, listed as Cenicriviroc

For `CCCCOCCOc1ccc(-c2ccc3c(c2)/C=C(/C(=O)Nc2ccc([S@@+]([O-])Cc4cncn4CCC)cc2)CCCN3CC(C)C)cc1` [CVC, (S)-8-[4-(2-Butoxyethoxy)phenyl]-1-isobutyl-N-(4-{[(1-propyl-1H-imidazol-5-yl)methyl]sulfinyl}phenyl)-1,2,3,4-tetrahydro-1-benzazocine-5-carboxamide], the “Effect on body or liver weight, whole blood glucose, or liver triglycerides” value ([1]; 20 and 100 mg/kg/day, week 9) was “no effect”, the “Decrease of collagen type 1 mRNA in whole liver lysates (real-time RT-PCR)” value ([1]; CVC 20 and 100 mg/kg/day, week 9) was 27-37% and the Body weight ([1]; CVC-high 100 mg/kg/day, week 9) was 18.7 ± 0.9 g. The “F4/80-positive area (inflammation area)” value ([1]; CVC-high 100 mg/kg/day, week 9) was 4.96±0.60%, the “F4/80 and CD16/32-positive cells” value ([1]; CVC-high 100 mg/kg/day, week 9) was 41.5±8.2% and the “F4/80 and CD206-positive cells” value ([1]; CVC-high 100 mg/kg/day, week 9) was 33.1±3.0%. It also gave a Liver hydroxyproline ([1]; CVC-high 100 mg/kg/day, week 9) of 0.62±0.09 μg/mg total protein, a Liver triglyceride ([1]; CVC-high 100 mg/kg/day, week 9) of 51.7±14.1 mg/g liver and a Liver weight ([1]; CVC-high 100 mg/kg/day, week 9) of 1307 ± 119 mg. For the same compound, the “NAFLD Activity Score (NAS)” value ([1]; CVC-high 100 mg/kg/day, week 9) was 3.7±0.8, the “Oil red-positive area (fat deposition area)” value (“Oil red-positive area” below) ([1]; CVC-high 100 mg/kg/day, week 9) was 7.23±3.59% and the “Plasma ALT” value ([1]; CVC-high 100 mg/kg/day, week 9) was 51±13 U/L and 52±13 U/L. The “Plasma MCP-1” value ([1]; CVC-high 100 mg/kg/day, week 9) was 91 ± 14 pg/mL, the “Plasma MIP-1β” value ([1]; CVC-high 100 mg/kg/day, week 9) was 20 ± 4 pg/mL and the TUNEL-positive cells ([1]; CVC-high 100 mg/kg/day, week 9) was 39.0±5.3%. The Whole blood glucose ([1]; CVC-high 100 mg/kg/day, week 9) was 585 ± 91 mg/dL, the Body weight [1, 3] was 18.7 ± 0.9 g and the “F4/80-positive area (inflammation area)” value [1, 3] was 4.96 ± 0.60%. The “F4/80 and CD16/32-positive cells” value [1, 3] was 41.5 ± 8.2%, the “F4/80 and CD206-positive cells” value [1, 3] was 33.1 ± 3.0% and the Liver hydroxyproline [1, 3] was 0.62 ± 0.09 μg/mg total protein. For the same compound, the Liver triglyceride [1, 3] was 51.7 ± 14.1 mg/g liver, the Liver weight [1, 3] was 1307 ± 119 mg and the “NAFLD Activity Score (NAS)” value [1, 3] was 3.7 ± 0.8. The “Oil red-positive area” value [1, 3] was 7.23 ± 3.59%, the “Plasma ALT” value [1, 3] was 52 ± 13 U/L and the “Plasma MCP-1” value [1, 3] was 91 ± 14 pg/mL. For the same compound, the “Plasma MIP-1β” value [1, 3] was 20 ± 4 pg/mL, the TUNEL-positive cells [1, 3] was 39.0 ± 5.3% and the Whole blood glucose [1, 3] was 585 ± 91 mg/dL. The “Sirius red-positive area (fibrosis area)” value [1, 3] was 0.64 ± 0.19%, the “Modified Sirius red-positive area” value [1, 3] was 0.20 ± 0.06% and the “Modified positive area (%), per mouse” value ([1]; CVC-high, Sirius red, mice 301-306 (raw data), listed as Cenicriviroc) was 0.12% and 0.26% and 0.17% and 0.27% and 0.18% and 0.20%. For the same compound, the “Modified positive area (%), individual photo” value ([1]; CVC-high, Sirius red, mice 301-306, photos 1-5 (raw data), listed as Cenicriviroc) was 0.17% (2×) and 0.28% (2×) and 0.22% (2×) and 0.08% (3×) and 0.05% and 0.09% (2×) and 0.32% and 0.07% (3×) and 0.16% and 0.20% (2×) and 0.68% and 0.23% (2×) and 0.27% and 0.12% and 0.11% and 0.67% and 0.26% and 0.06% and 0.10% and 0.41%, the “Number of animals with Hepatocyte ballooning score 0” value ([1]; CVC-high, week 9, n=6) was 1 and the “Number of animals with Hepatocyte ballooning score 1” value ([1]; CVC-high, week 9, n=6) was 2. For the same compound, the “Number of animals with Hepatocyte ballooning score 2” value ([1]; CVC-high, week 9, n=6) was 3, the “Number of animals with Lobular inflammation score 1” value ([1]; CVC-high, week 9, n=6) was 3 and the “Number of animals with Lobular inflammation score 2” value ([1]; CVC-high, week 9, n=6) was 3. For the same compound, the “Number of animals with Steatosis score 1” value ([1]; CVC-high, week 9, n=6) was 5, the Body weight ([1]; CVC-low 20 mg/kg/day, week 9) was 19.5 ± 2.0 g and the “F4/80-positive area (inflammation area)” value ([1]; CVC-low 20 mg/kg/day, week 9) was 4.77±1.02%. The “F4/80 and CD16/32-positive cells” value ([1]; CVC-low 20 mg/kg/day, week 9) was 38.7±7.6%, the “F4/80 and CD206-positive cells” value ([1]; CVC-low 20 mg/kg/day, week 9) was 34.7±6.3% and the Liver hydroxyproline ([1]; CVC-low 20 mg/kg/day, week 9) was 0.63±0.05 μg/mg total protein. For the same compound, the Liver triglyceride ([1]; CVC-low 20 mg/kg/day, week 9) was 48.5±16.1 mg/g liver, the Liver weight ([1]; CVC-low 20 mg/kg/day, week 9) was 1334 ± 99 mg and the “NAFLD Activity Score (NAS)” value ([1]; CVC-low 20 mg/kg/day, week 9) was 4.0±0.6. The “Oil red-positive area” value ([1]; CVC-low 20 mg/kg/day, week 9) was 6.51±3.88%, the “Plasma ALT” value ([1]; CVC-low 20 mg/kg/day, week 9) was 58±12 U/L and the “Plasma MCP-1” value ([1]; CVC-low 20 mg/kg/day, week 9) was 68 ± 16 pg/mL. The “Plasma MIP-1β” value ([1]; CVC-low 20 mg/kg/day, week 9) was 18 ± 2 pg/mL, the TUNEL-positive cells ([1]; CVC-low 20 mg/kg/day, week 9) was 43.3±2.9% and the Whole blood glucose ([1]; CVC-low 20 mg/kg/day, week 9) was 585 ± 91 mg/dL. For the same compound, the Body weight [1, 4] was 19.5 ± 2.0 g, the “F4/80-positive area (inflammation area)” value [1, 4] was 4.77 ± 1.02% and the “F4/80 and CD16/32-positive cells” value [1, 4] was 38.7 ± 7.6%. For the same compound, the “F4/80 and CD206-positive cells” value [1, 4] was 34.7 ± 6.3%, the Liver hydroxyproline [1, 4] was 0.63 ± 0.05 μg/mg total protein and the Liver triglyceride [1, 4] was 48.5 ± 16.1 mg/g liver. The Liver weight [1, 4] was 1334 ± 99 mg, the “NAFLD Activity Score (NAS)” value [1, 4] was 4.0 ± 0.6 and the “Oil red-positive area” value [1, 4] was 6.51 ± 3.88%. For the same compound, the “Plasma ALT” value [1, 4] was 58 ± 12 U/L, the “Plasma MCP-1” value [1, 4] was 68 ± 16 pg/mL and the “Plasma MIP-1β” value [1, 4] was 18 ± 2 pg/mL. The TUNEL-positive cells [1, 4] was 43.3 ± 2.9%, the Whole blood glucose [1, 4] was 585 ± 91 mg/dL and the “Sirius red-positive area (fibrosis area)” value [1, 4] was 0.66 ± 0.16%. For the same compound, the “Modified Sirius red-positive area” value [1, 4] was 0.29 ± 0.14%, the “Number of animals with Hepatocyte ballooning score 1” value ([1]; CVC-low, week 9, n=6) was 3 and the “Number of animals with Hepatocyte ballooning score 2” value ([1]; CVC-low, week 9, n=6) was 3. The “Number of animals with Lobular inflammation score 1” value ([1]; CVC-low, week 9, n=6) was 3, the “Number of animals with Lobular inflammation score 2” value ([1]; CVC-low, week 9, n=6) was 3 and the “Number of animals with Steatosis score 1” value ([1]; CVC-low, week 9, n=6) was 6. The “Increase in plasma monocyte chemotactic protein-1 levels” value ([1]; high dose 100 mg/kg/day, week 9) was 1.5 fold, the “Increase in plasma monocyte chemotactic protein-1 levels” value ([1]; low dose 20 mg/kg/day, week 9) was 1.1 fold and the Tolerability [2] was “generally well tolerated”. The “p24 antigen level in culture fluids” value (HIV-1 BaL; baseline 506 ng/ml) was 192 ng/mL, the “Viral RNA in culture fluids” value (HIV-1 BaL; baseline 1.19×10^10) was 1.26×10^10 copies/ml and the “Monocyte migration ex vivo (CCL2-induced chemotaxis)” value (mouse monocytes) was “reduced”.
